According to patent US9469645B2, “Compounds and compositions for the treatment of parasitic diseases” (Novartis AG, priority 2009, dated 2016):

Columns and labels:
3D7 P. falciparum strain = assay: parasite proliferation assay in infected red blood cells (SYBR Green I); assay type: cell-based, Plasmodium falciparum; conditions: Plasmodium falciparum, 3D7, Erythrocyte, 3D7 strain; read-out: EC50 3D7 strain
Summary of the method: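 P. falciparum 3D7 grown in O+ human erythrocytes to 3–8% parasitemia and exposed to compounds. Proliferation read as the increase in parasite DNA. Detection used SYBR Green I in saponin/triton-X/EDTA lysis buffer, with overnight lysis at room temperature.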

W2 strain = assay: parasite proliferation assay in infected red blood cells (SYBR Green I), W2 strain; assay type: cell-based; conditions: Erythrocyte
Text: Compounds of the invention can be assayed to measure their capacity to inhibit proliferation of parasitemia in infected red blood cells. The proliferation is quantified by the addition of SYBR Green I (INVITROGEN)® dye which has a high affinity for double stranded DNA.

Compound	EC50 (3D7 P. falciparum strain)	EC50 (W2 strain)	EC50 (W2 strain; Plasmodium falciparum)
C[C@@H](N)C(=O)N1CCn2c(nc(-c3ccc(F)cc3)c2Nc2ccc(Cl)c(F)c2)C1 [Compound 327]	30 nM	21 nM	–
Cc1ccc(Nc2c(-c3ccc(F)cc3)nc3n2CCN(C(=O)CN2CCC(CCN)CC2)C3)cc1 [Compound 178]	3050 nM	3320 nM	–
Cc1cc(Nc2c(-c3ccc(F)cc3)nc3n2CCN(C(=O)C(C)(C)N)C3)ccc1F [Compound 628]	33 nM	–	40 nM
Cc1ccc(Nc2c(-c3ccc(F)cc3)nc3cnccn23)cc1 [Example 136, 2-(4-fluorophenyl)-N-p-tolylimidazo[1,2-a]pyrazin-3-amine]	2020 nM	2690 nM	–
CC1(C)c2nc(-c3ccc(F)cc3)c(Oc3ccc(F)cc3)n2CCN1C(=O)CN [Compound 709, 2-amino-1-(3-(4-fluorophenoxy)-2-(4-fluorophenyl)-8,8-dimethyl-5,6-dihydroimidazo[1,2-a]pyrazin-7(8H)-yl)ethanone]	3 nM	–	8 nM
NCC(=O)N1CCn2c(nc(-c3cccc(F)c3)c2Nc2ccc(Cl)c(F)c2)C1 [Compound 228]	10 nM	8 nM	–
CC1(C)c2nc(-c3ccc(F)cc3)c(Nc3ccc(C#N)c(C(F)(F)F)c3)n2CCN1C(=O)CN [Compound 655]	17 nM	–	20 nM
CC1(C)NCCn2c1nc(-c1ccc(F)cc1)c2C(=O)Nc1ccc(F)cc1 [Compound 707, N,2-bis(4-fluorophenyl)-8,8-dimethyl-5,6,7,8-tetrahydroimidazo[1,2-a]pyrazine-3-carboxamide]	6540 nM	–	> 10000 nM
COC(C(=O)N1CCn2c(nc(-c3ccc(F)cc3)c2Nc2ccc(C)cc2)C1)c1ccccc1 (centres unmarked) [Compound 125]	50 nM	44 nM	–
CC(C)(N)C(=O)N1CCn2c(nc(-c3ccc(F)cc3)c2-c2ccc(F)cc2)C1 [Compound 31]	13100 nM	6890 nM	–
CC1(C)c2nc(-c3ccc(F)cc3)c(Sc3cccc(F)c3)n2CCN1C(=O)CN [Compound 714]	7 nM	–	4 nM
Cc1ccc(Nc2c(-c3ccc(F)cc3)nc3n2CCN(C(=O)C(C)c2ccc(Cl)cc2)C3)cc1 (centres unmarked) [Compound 173]	140 nM	133 nM	–
Cc1ccc(CC(N)C(=O)N2CCn3cc(-c4ccc(F)cc4)nc3C2(C)C)cc1 (centres unmarked) [Compound 700, 2-amino-1-(2-(4-fluorophenyl)-8,8-dimethyl-5,6-dihydroimidazo[1,2-a]pyrazin-7(8H)-yl)-3-p-tolylpropan-1-one]	> 9510 nM	–	7000 nM
CCN1CCC(CC(=O)N2CCn3c(nc(-c4ccc(F)cc4)c3Nc3ccc(C)cc3)C2)CC1 [Compound 214]	2850 nM	2010 nM	–
CC(=O)NCC(=O)N1CCn2c(nc(-c3ccc(F)cc3)c2Nc2ccc(F)cc2)C1 [Compound 25]	> 10600 nM	4350 nM	–
CN1Cc2nc(-c3ccc(F)cc3)c(Nc3ccc(Cl)c(F)c3)n2C(C)(C)C1 [Compound 609]	7020 nM	–	4930 nM
Cc1ccc(Nc2c(-c3ccc(F)cc3)nc3n2CCN(C(=O)CNCc2ccccc2)C3)cc1 [Compound 146]	20 nM	14 nM	–
CCCNC(=O)C[C@H](N)C(=O)N1CCn2c(nc(-c3cccc(F)c3)c2Nc2ccc(F)cc2)C1 [Compound 256]	1160 nM	1480 nM	–
CN1CCn2c(nc(-c3ccc(F)cc3)c2Nc2ccc(Cl)cc2)C1(C)C [Compound 607]	30 nM	–	48 nM
Cc1ccc(Nc2c(-c3ccc(F)cc3)nc3n2CCN(C(=O)[C@@H](N)CS(C)(=O)=O)C3)cc1 [Compound 288]	890 nM	1390 nM	–
CC1(C)c2nc(-c3ccc(F)cc3)c(NC3CCC(c4ccccc4)CC3)n2CCN1C(=O)CN (centres unmarked) [Compound 661]	339 nM	–	520 nM
Cc1ccc(Nc2c(-c3ccc(F)cc3)nc3n2CCN(C(=O)[C@H](Cc2ccccc2)N(C)C)C3)cc1 [Compound 177]	430 nM	430 nM	–

Compound	EC50 (3D7 P. falciparum strain)	EC50 (W2 strain)	EC50 (W2 strain; Plasmodium falciparum)
CC1(C)c2nc(-c3ccc(F)cc3)c(NC3CCOCC3)n2CCN1C(=O)CN [Compound 672]	9840 nM	–	7140 nM
COc1ccc(C(O)C(=O)N2CCn3c(nc(-c4ccc(F)cc4)c3Nc3ccc(C)cc3)C2)cc1 (centres unmarked) [Compound 122]	180 nM	154 nM	–
Cc1ccc(Nc2c(-c3ccc(F)cc3)nc3n2CCN(C(=O)CC2CCOC2)C3)cc1 (centres unmarked) [Compound 215]	830 nM	650 nM	–
Cc1ccc(Nc2c(-c3ccc(F)cc3)nc3n2CCN(C(=O)[C@@H](N)CCS(C)(=O)=O)C3)cc1 [Compound 286]	1380 nM	1500 nM	–
CC1(C)c2nc(-c3ccc(F)cc3)c(Sc3ccc(F)cc3)n2CCN1C(=O)CN [Compound 715]	6 nM	–	6 nM
CCCC(=O)NCc1ccc(C[C@H](N)C(=O)N2CCn3c(nc(-c4ccc(F)cc4)c3Nc3ccc(C)cc3)C2)cc1 [Compound 218]	4710 nM	4010 nM	–
Cc1cc(Nc2c(-c3cccc(F)c3)nc3n2CC(=O)N(CCCN)C3(C)C)ccc1F [Compound 689]	512 nM	–	295 nM
Cc1ccc(Nc2c(-c3ccc(F)cc3)nc3n2CCN(C(=O)C(c2ccccc2)C2CCCC2)C3)cc1 (centres unmarked) [Compound 226]	480 nM	348 nM	–
CCO[C@@H](Cc1ccc(O)cc1)C(=O)N1CCn2c(nc(-c3ccc(F)cc3)c2Nc2ccc(C)cc2)C1 [Compound 210]	40 nM	26 nM	–
COCCCN1C(=O)Cn2c(nc(-c3cccc(F)c3)c2Nc2ccc(F)c(C)c2)C1(C)C [Compound 691]	68 nM	–	60 nM
Cc1ccc(CC(=O)N2CCn3c(nc(-c4ccc(F)c(F)c4)c3Nc3ccc(C)cc3)C2)cc1 [Compound 390]	30 nM	28 nM	–
O=C(CN1CCCC(C(F)(F)F)C1)N1CCn2c(nc(-c3ccc(F)cc3)c2Nc2ccc(F)cc2)C1 (centres unmarked) [Compound 63]	1950 nM	1610 nM	–
Cc1ccc(Nc2c(-c3ccc(F)cc3)nc3n2CCN(C(=O)CNc2cccc(Cl)c2)C3)cc1 [Compound 361]	2350 nM	1140 nM	–
CCCCCNCC(=O)N1CCn2c(nc(-c3ccc(F)cc3)c2Nc2ccc(C)cc2)C1 [Compound 308]	60 nM	68 nM	–
Cc1ccc(Nc2c(-c3cccc(F)c3)nc3n2CC(=O)NC3(C)C)cc1F [Compound 603]	50 nM	–	73 nM
NCC(=O)N1CCn2c(nc(-c3ccc(F)cc3)c2NC2CCCC2)C1 [Compound 6]	4380 nM	4640 nM	–
Cc1ccc(Nc2c(-c3ccc(F)cc3)nc3n2CCN(C(=O)[C@H](CO)NC(=O)C(F)(F)F)C3)cc1 [Compound 164]	> 9810 nM	3760 nM	–
Cc1ccc(Nc2c(-c3ccc(F)cc3)nc3n2CCN(C(=O)CNC(N)=O)C3)cc1 [Compound 166]	2870 nM	2230 nM	–
NC(C(=O)N1CCn2c(nc(-c3cccc(F)c3)c2Nc2ccc(Cl)c(F)c2)C1)C(F)(F)F (centres unmarked) [Compound 221]	90 nM	83 nM	–
N[C@@H](Cc1cscn1)C(=O)N1CCn2c(nc(-c3ccc(F)cc3)c2Nc2ccc(Cl)c(F)c2)C1 [Compound 315]	20 nM	8 nM	–
CC(C)[C@@H](O)C(=O)N1CCn2c(nc(-c3ccc(F)cc3)c2Nc2ccc(Cl)c(F)c2)C1 [Compound 360]	30 nM	15 nM	–
